{"source": "patent US7344829B2", "about": "“Methods for detecting the efficacy of anticancer treatments” (Board of Regents, the University of Texas System, priority 2000, dated 2008)", "key": {"EGF-R": {"molecular_target": "T1, EGF-R (Homo sapiens, UniProt P00533)", "T1 construct": "endogenous in cells; host or cells: L3.6pl human pancreatic cancer cells", "T1 sequence (P00533 25-1210)": "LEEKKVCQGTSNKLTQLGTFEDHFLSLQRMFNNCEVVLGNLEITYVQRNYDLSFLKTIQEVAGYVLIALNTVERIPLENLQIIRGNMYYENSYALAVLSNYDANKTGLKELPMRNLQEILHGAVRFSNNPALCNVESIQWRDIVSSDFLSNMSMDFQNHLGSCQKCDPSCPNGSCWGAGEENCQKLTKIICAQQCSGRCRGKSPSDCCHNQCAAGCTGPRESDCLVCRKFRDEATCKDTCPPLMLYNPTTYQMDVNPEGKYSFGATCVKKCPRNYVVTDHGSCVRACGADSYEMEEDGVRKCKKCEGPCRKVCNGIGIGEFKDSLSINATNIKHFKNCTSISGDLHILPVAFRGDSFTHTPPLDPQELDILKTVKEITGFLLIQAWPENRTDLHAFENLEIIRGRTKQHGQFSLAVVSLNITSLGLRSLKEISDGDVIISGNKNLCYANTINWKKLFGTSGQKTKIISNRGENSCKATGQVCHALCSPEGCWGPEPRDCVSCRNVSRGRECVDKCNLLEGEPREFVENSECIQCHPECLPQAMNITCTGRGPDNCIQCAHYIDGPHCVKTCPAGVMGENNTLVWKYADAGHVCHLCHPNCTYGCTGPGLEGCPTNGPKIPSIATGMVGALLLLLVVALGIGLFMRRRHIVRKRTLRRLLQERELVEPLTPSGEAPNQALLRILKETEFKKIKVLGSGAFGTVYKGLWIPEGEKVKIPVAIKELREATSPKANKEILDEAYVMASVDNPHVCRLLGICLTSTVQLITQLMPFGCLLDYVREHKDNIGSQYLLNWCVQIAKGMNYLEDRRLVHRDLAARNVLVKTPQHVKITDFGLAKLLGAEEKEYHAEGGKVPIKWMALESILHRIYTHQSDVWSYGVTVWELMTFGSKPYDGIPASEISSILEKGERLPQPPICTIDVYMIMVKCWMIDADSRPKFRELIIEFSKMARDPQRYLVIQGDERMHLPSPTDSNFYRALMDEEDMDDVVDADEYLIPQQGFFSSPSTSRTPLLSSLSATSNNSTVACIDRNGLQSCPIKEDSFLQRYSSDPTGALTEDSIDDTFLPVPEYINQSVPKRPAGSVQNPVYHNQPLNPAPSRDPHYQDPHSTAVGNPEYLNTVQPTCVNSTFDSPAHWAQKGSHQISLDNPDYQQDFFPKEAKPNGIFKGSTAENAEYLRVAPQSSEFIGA", "test": "Western blot analysis of EGF-R autophosphorylation in L3.6pl cells", "type": "cell-based", "conditions": "concentration of 10 μM (data not shown)", "description": "Western Blot Analysis of EGF-R Autophosphorylation following Treatment with PKI166. […] without 40 ng/ml rhEGF for 10 min, washed, and scraped into PBS containing 5 mM EDTA and 1 mM Na Orthovanadate, and centrifuged, and the pellet resuspended in lysis buffer (20 mM Tris-HCl, pH 8.0, 137 mM NaCl, 10% glycerol, 2 mM EDTA, 1 mM phenylmethylsulfonyl fluoride, 20 μM leupeptin, and 0.15 U/ml aprotinin) sonicated, and centrifuged to recover […] protein. Immunoprecipitation was performed using Mab anti-EGF-R (clone EGF-RI) as described previously (Perrotte et al. 1999; Parker et al. 1998). Immunoprecipitates were analyzed on 7.5% NaDodSO4-PAGE and transferred onto 0.45-μm nitrocellulose membranes. The filters were blocked with 3% bovine serum albumin in TDS (20 mM Tris-HCl, pH 7.5, 150 mM NaCl), probed with either polyclonal sheep anti-human EGF-R (1:1000) or monoclonal anti-phosphotyrosine (Mab 4G10) (1:2000) in TTBS (0.1% Tween 20 in TBS), and incubated with horseradish peroxidase-conjugated donkey anti-sheep IgG (1:2000) (Sigma Immunochemicals, St. Louis, Mo.) or sheep anti-mouse IgG (1:2000), respectively, in TTBS. Protein bands were visualized by ECL detection system. For an additional experiment, serum-starved L3.6pl cells were treated with gemcitabine (10 nM) with or without PKI166 (0.05, 0.5 μM) for 1 h, and then incubated with or without rhEGF (40 ng/ml) for 10 min. […]"}, "VEGF": {"test_system": "VEGF", "test": "In vitro expression of VEGF by L3.6pl cells (ELISA)", "type": "cell-based, human", "conditions": "72 h, 1 μM PKI166 or 10 nM gemcitabine, control 1400 pg/ml", "description": "(§1) In vitro Expression of VEGF and IL-8. L3.6pl cells (2000 cells/38 mm^2 well) were plated into 96-well plates in 200 μl supplemented DMEM containing 5% FBS for 24 h, and then treated with 0.05, 0.5, or 1 μM PKI166. Supplemented DMEM (5% FBS) and human IgG (10 μg/ml) served as controls. Seventy-two hours later, the culture supernatants were collected, and the level of VEGF and IL-8 proteins (corrected for cell number) were determined by Quantikine ELISA kits."}, "[1]": {"test_system": "L3.6pl human pancreatic cancer cells", "test": "Immunohistochemical analysis of human pancreatic carcinoma in the pancreas of treated nude mice", "type": "in vivo", "conditions": "for PCNA+ tumor cells / TUNEL+ tumor cells: mean ± SD, 10 random 0.159-mm^2 fields at ×100; for CD (CD31, tumor MVD per field): staining with antibodies against CD31", "description": "Immunohistochemical (IHC) Determination of VEGF, IL-8, PCNA, CD31/PECAM-1, and EGF-R. Paraffin-embedded tissues were used for identification of VEGF, IL-8, EGF-R, and proliferating cell nuclear antigen (PCNA). Sections (4–6 μm thick) were mounted on positively-charged Superfrost slides (Fisher Scientific, Co., Houston, Tex.) and dried overnight. Sections were deparaffinized in xylene followed by treatment with a graded series of alcohol (100%, 95%, 80% ethanol/ddH2O [v/v]) and rehydrated in PBS, pH 7.5. Sections analyzed for PCNA were microwaved 5 min for “antigen retrieval” (Shi et al. 1991). All other paraffin-embedded tissues were treated with pepsin (Biomeda) for 15 min at 37° C. and washed with PBS. Frozen tissues used for identification of CD31/PECAM-1, and activated EGF-R were sectioned (8–10 μm), mounted on positively charged Plus slides (Fisher Scientific), and air-dried for 30 min. Frozen sections were fixed in cold acetone (5 min), acetone/chloroform (v/v) (5 min), and acetone (5 min) and washed with PBS. Immunohistochemical procedures were performed as described previously (Rak et al. 1996). Positive reaction was visualized by incubating the slides with stable 3,3′-diaminobenzidine (DAB) for 10–20 min or 3-amino-9-ethylcarbazole (AEC) after CD31 staining. The sections were rinsed with distilled water, counterstained with Gill's hematoxylin for 1 min, and mounted with Universal Mount (Research Genetics). […] Sections analyzed for activated EGF-R were pretreated with goat anti-mouse IgG F(ab)2 fragment (1:10 dilution in PBS) for 4–6 h before incubation with the primary antibody. The positive reaction following staining for activated EGF-R was enhanced with osmium tetraoxide (4% aqueous solution) at a 1:1000 dilution in ddH2O after incubation with DAB.\nImmunofluorescence Double Staining for CD31/PECAM-1 (Endothelial Cells) and TUNEL (Apoptotic Cells). Frozen tissues were sectioned (8–10 μm), mounted on positively charged slides, air-dried for 30 min, and fixed in cold acetone for 5 min, acetone+chloroform (1:1) for 5 min, and acetone for 5 min. Samples were washed 3 times with PBS, incubated with protein-blocking solution containing 5% normal horse serum and 1% normal goat serum in PBS for 20 min at room temperature, and incubated with the appropriate dilution (1:400) of rat monoclonal anti-mouse CD31 antibody (human cross-reactive) over 18 h at 4° C. After the samples were rinsed 4 times for 3 min each with PBS, the slides were incubated with the appropriate dilution (1:200) of secondary goat anti-rat conjugated to Texas Red for 1 h at room temperature in the dark. Samples were washed twice with PBS containing 0.1% Brij and washed with PBS for 5 min.\nTUNEL was performed using a commercially available apoptosis detection kit with the following modifications: samples were fixed with 4% paraformaldehyde (methanol-free) for 10 min at room temperature, washed twice with PBS for 5 min, and then incubated with 0.2% Triton X-100 for 15 min at room temperature. After two washes of 5 min each with PBS, the samples were incubated with equilibration buffer (from kit) for 10 min at room temperature. The equilibration buffer was drained, and reaction buffer containing equilibration buffer, nucleotide mix, and TdT enzyme was added to the tissue sections and incubated in a humid atmosphere at 37° C. for 1 h in the dark. The reaction was terminated by immersing the samples in 2×SSC for 15 min. Samples were washed 3 times for 5 min to remove unincorporated fluorescein-dUTP. For quantification of […], the samples were incubated with 300 μg/ml of Hoechst stain for 10 min at room temperature. Fluorescent bleaching was minimized by treating slides with an enhancing reagent (Prolong solution). […]"}, "[2]": {"test_system": "L3.6pl human pancreatic cancer cells", "test": "Preliminary gemcitabine dose-response experiment in nude mice with pancreatic tumors", "type": "in vivo", "conditions": "gemcitabine 250 mg/kg and 500 mg/kg compared to 125 mg/kg (data not shown)", "description": "To evaluate the therapeutic effect of gemcitabine in this animal model, a preliminary dose-response experiment was performed. […] All mice were killed on day 35. The volume of tumors and incidence of metastasis were determined."}, "[3]": {"test_system": "L3.6pl human pancreatic cancer cells", "source_text": "Animals and Orthotopic Implantation of Tumor Cells. Male athymic nude mice (NCr-nu) were purchased from the Animal Production Area of the National Cancer Institute-Frederick Cancer Research and Development Center (Frederick, Md.). The mice were housed and maintained in laminar flow cabinets under specific pathogen-free conditions in facilities approved by the American Association for Accreditation of Laboratory Animal Care and in accordance with current regulations and standards of the U. S. Department of Agriculture, U.S. Department of Health and Human Services, and the National Institutes of Health. The mice were used in accordance with institutional guidelines when they were 8 to 12 wk old.\nOrthotopic Implantation of Tumor Cells. To produce tumors, L3.6pl cells were harvested from subconfluent cultures by a brief exposure to 0.25% trypsin and 0.02% EDTA. Trypsinization was stopped with medium containing 10% FBS, and the cells were washed once in serum-free medium and resuspended in HBSS. Only suspensions consisting of single cells with greater than 90% viability were used for the injections. Cells were injected into the pancreas as described previously. The mice were killed when moribund (5–6 wk). The size and weight of the primary pancreatic tumors, the incidence of regional (celiac and paraaortal) lymph node metastasis, and the number of liver metastases were recorded. Histopathology confirmed the nature of the disease.\nTherapy of Established Human Pancreatic Carcinoma Tumors Growing in the Pancreas of Athymic Nude Mice. Seven days after implantation of tumor cells into the pancreas, 5 mice were killed and the presence of tumor lesions was determined. At this time, the median tumor volume was 18 mm^3. Histological examination confirmed the lesions to be actively growing pancreatic cancer.\nNecropsy Procedures and Histological Studies. Mice were euthanized and the body weight was determined. Primary tumors in the pancreas were excised and weighed. […] Visible liver metastases were counted with the aid of a dissecting microscope and processed for H&E staining. All macroscopically enlarged regional (celiac and paraaortal) lymph nodes were harvested, and the presence of metastatic disease was confirmed by histology."}, "IL-8": {"test_system": "IL-8", "test": "In vitro expression of IL-8 by L3.6pl cells (ELISA)", "type": "cell-based, human", "conditions": "72 h, 1 μM PKI166 or 10 nM gemcitabine, control 1440 pg/ml", "description": "as §1"}, "L3.6pl cells": {"test_system": "L3.6pl cells", "test": "In vitro cytotoxicity assay (MTT)", "type": "cell-based", "conditions": "Homo sapiens, 144 h, 6 days", "description": "In Vitro Cytotoxicity Assay. In all assays, 700–1000 tumor cells were seeded into 38-mm^2 wells of flat-bottomed 96-well plates in quadruplicate and allowed to adhere overnight. The cultures were then washed and refed with medium (negative control) or medium containing PKI166 with or without gemcitabine. […] Following a 2–4 h incubation in medium containing 0.42 mg/ml of MTT, the cells were lysed in DMSO. The conversion of MTT to formazan by metabolically viable cells was monitored by an MR-5000 96-well microtiter plate reader at 570 nm (Dynatech, Inc., Chantilly, Va.). Growth inhibition was calculated from the formula: Cytostasis (%)=[1−(A/B)]×100, where A is the absorbance of treated cells and B is the absorbance of the control cells."}, "[4]": {"conditions": "mean ± SD absorbance, ratio of tumor cell to normal pancreatic gland expression ×100, day 35"}}, "note": "Marks after values point to notes of the source that are not given here."}
{"molecule": "Nc1ccn([C@@H]2O[C@H](CO)[C@@H](O)C2(F)F)c(=O)n1", "note": "[gemcitabine]", "values": [{"measurement": "Effect on autophosphorylation of EGF-R", "setting": "EGF-R", "value": "did not affect"}, {"measurement": "VEGF in culture supernatant", "setting": "VEGF", "value": 1280, "unit": "pg/mL"}, {"measurement": "ratio of PCNA-positive over TUNEL-positive cells", "setting": "[1]; calculated", "value": 1.1}, {"measurement": "Staining of pancreatic tumors for activated (phosphorylated) EGF-R", "setting": "[1]; immunohistochemistry of tumors from treated nude mice", "value": "stained positive"}, {"measurement": "IL-8", "setting": "[1]; [4]", "value": "299 ± 43"}, {"measurement": "VEGF", "setting": "[1]; [4]", "value": "298 ± 54"}, {"measurement": "PCNA+ tumor cells", "setting": "[1]; day 35", "value": "237±66", "unit": "positive cells/field"}, {"measurement": "TUNEL+ tumor cells", "setting": "[1]; day 35", "value": "225±95", "unit": "positive cells/field"}, {"measurement": "PCNA+ tumor cells", "setting": "[1]; day 35, listed as Gemcitabine", "value": "237 ± 66", "unit": "positive cells/field"}, {"measurement": "TUNEL+ tumor cells", "setting": "[1]; day 35, listed as Gemcitabine", "value": "225 ± 95^e positive cells/field"}, {"measurement": "CD (CD31, tumor MVD per field)", "setting": "[1]; day 35", "value": "52±18"}, {"measurement": "CD (CD31, tumor MVD per field)", "setting": "[1]; day 35, listed as Gemcitabine", "value": 52}, {"measurement": "Effect of increasing the dose on pancreatic tumor growth and metastasis", "setting": "[2]", "value": "did not further reduce"}, {"measurement": "Histologically positive regional lymph node metastases, share of animals", "setting": "[3]; day 35", "value": 90, "unit": "%"}, {"measurement": "Reduction of growth of primary pancreatic neoplasms", "setting": "[3]; human pancreatic carcinoma in pancreas of nude mice", "value": 45, "unit": "%"}, {"measurement": "IL-8 in culture supernatant", "setting": "IL-8", "value": 2000, "unit": "pg/mL"}, {"measurement": "IC50", "setting": "L3.6pl cells; gemcitabine alone", "value": 0.88, "unit": "µM"}, {"measurement": "IC50", "setting": "L3.6pl cells; in the presence of PKI166 (0.03 μM)", "value": 0.52, "unit": "µM"}]}
